From patent EP4745138A1, “THIO-GLUTARIMIDO ISOINDOLINONE DERIVATIVE, BIFUNCTIONAL PROTEIN DEGRADER CONTAINING SAME, AND USES THEREOF” (Gluetacs Therapeutics (Shanghai) Co., Ltd., priority 2023, dated 2025)
Where two headings read alike, the source gives them in different places.

Assays:
[1] = biological target: T1, human Cereblon WT GST-tagged protein (Homo sapiens, UniProt Q96SW2); test: CRBN-binding affinity, HTRF (CEREBLON BINDING kit); details: for inhibition at 0.5 µM: read-out: Inhibition Rate at 0.5 µM (%); for inhibition at 2 µM: read-out: Inhibition Rate at 2 µM (%)
T1 construct: purchased CISBIO 64BDCRBNPEH
In short: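 Compounds are serially diluted in diluent #9 (1X) and added at final 2 µM and 0.5 µM. GST-tagged wild-type Cereblon is added next, followed by premixed thalidomide-red reagent and anti-GST Eu antibody, and HTRF signal is measured.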

SW620 = test: Tumor cell proliferation inhibition (CellTiter-Meiluncell Luminescent Cell Viability Assay); type: cell-based; details: Homo sapiens, 96 hours; for inhibition at 0.01 µM: SW-620, 10 nM, read-out: Inhibition Rate at 10 nM (%); for inhibition at 0.5 µM: SW-620, 500 nM, read-out: Inhibition Rate at 500 nM (%)
Description: (§1) The tumor cells used herein were cultured in a cell culture medium listed in table 3 at 37°C in an incubator with 5% CO2. Prior to experimentation, all cell lines used were correctly identified by STR profiling, and tested negative for mycoplasma contamination using a mycoplasma detection kit through routine screenings. Table 3. Tumor cells and cell culture medium used in the present disclosure
(§2) The IC50 values of the compounds of the present disclosure (including the compounds in Table 1, Table 2, and Examples) were determined using the CellTiter-Meiluncell Luminescent Cell Viability Assay Kit from Dalian Meilun Biotech Co., Ltd. The detailed procedure is as follows: Tumor cells were seeded in 96-well cell culture plates at the densities specified in Table 4. On the following day, the test compounds of the present disclosure were subjected to serial dilution. […] Subsequently, 0.5 µL of the test compound dilution was transferred into the 96-well plate containing the cells, with each well containing 100 µL of cell culture medium. […] Into the 96-well plate, the diluted test compounds and corresponding detection reagents were added, resulting in final test compound concentrations of 500 nM and 10 nM, respectively. The experimental procedure is described below using the diluted 2 µM test compound as an example.
(§3) 0.5 µL of the aforementioned diluted compound of the present disclosure (including the compounds in Table 1, Table 2, and Examples) was added to the seeded cells in 100 µL of medium, yielding a final test compound concentration of 10 nM. After the cells were treated with the compounds of the present disclosure for a specified period, the cell viability assay reagent was added to the culture medium according to the kit's instructions to determine cell viability. […] All controls were treated using the same procedure as the compounds of the present disclosure. […] Seeding protocol and treatment time for tumor cells

MV-4-11 = test: as above; type: cell-based; details: Homo sapiens, 96 hours; for inhibition at 0.01 µM: MV4-11, 10 nM, read-out: Inhibition Rate at 10 nM (%); for inhibition at 0.5 µM: MV4-11, 500 nM, read-out: Inhibition Rate at 500 nM (%)
Description: as §1, §2, §3

MM.1S = test: as above; type: cell-based; details: for inhibition at 0.01 µM / inhibition at 0.5 µM: Homo sapiens, MM1.S; for inhibition at 0.01 µM: read-out: Inhibition Rate at 10 nM (%); for inhibition at 0.5 µM: read-out: Inhibition Rate at 500 nM (%)
Description: as §1, §2, §3

RPMI-8226 = test: as above; type: cell-based; details: Homo sapiens, 96 hours; for inhibition at 0.01 µM: 10 nM, read-out: Inhibition Rate at 10 nM (%); for inhibition at 0.5 µM: 500 nM, read-out: Inhibition Rate at 500 nM (%)
Description: as §1, §2, §3

[2] = MM.1S, 10 nM, 96 hours, Table I-11, RSK inhibitors
[3] = MM.1S, 500 nM, 96 hours, Table I-11, RSK inhibitors
[4] = Table I-8, SMARCA2/4 inhibitors

T1 sequence (Q96SW2 whole entry): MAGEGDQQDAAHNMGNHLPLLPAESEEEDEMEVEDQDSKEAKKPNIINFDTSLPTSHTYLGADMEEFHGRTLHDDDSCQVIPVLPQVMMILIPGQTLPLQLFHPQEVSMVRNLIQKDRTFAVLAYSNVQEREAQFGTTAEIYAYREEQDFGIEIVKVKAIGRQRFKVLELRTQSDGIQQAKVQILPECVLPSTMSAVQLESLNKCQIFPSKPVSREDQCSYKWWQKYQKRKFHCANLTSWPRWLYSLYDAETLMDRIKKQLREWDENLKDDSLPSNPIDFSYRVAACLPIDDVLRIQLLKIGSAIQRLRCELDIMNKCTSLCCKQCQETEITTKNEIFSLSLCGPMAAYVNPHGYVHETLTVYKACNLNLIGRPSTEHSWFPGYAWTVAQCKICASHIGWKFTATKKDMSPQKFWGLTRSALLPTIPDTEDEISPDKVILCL

## CC1(C)CCC(c2ccc(Cl)cc2)=C(CN2CCN(c3ccc(C(=O)NS(=O)(=O)c4ccc(N[C@H](CCN5CCN(Cc6ccc7c(c6)CN(C6CCC(=O)NC6=O)C7=S)CC5)CSc5ccccc5)c(S(=O)(=O)C(F)(F)F)c4)cc3)CC2)C1 (stereo partly drawn) [GT-09415, 4-(4-((4'-chloro-4,4-dimethyl-3,4,5,6-tetrahydro-[1,1'-biphenyl]-2-yl)methyl)piperazin-1-yl)-N-((4-(((2R)-4-(4-((2-(2,6-dioxopiperidin-3-yl)-1-thioxoisoindolin-5-yl)methyl)piperazin-1-yl)-1-(phenylthio)butan-2-yl)amino)-3-((trifluoromethyl)sulfonyl)phenyl)sulfonyl)benzamide]
[1]
  inhibition at 0.5 µM: 53 to 60%
  inhibition at 2 µM: 80 to 100%
SW620; Table I-15, BCL-2 inhibitors
  inhibition at 0.01 µM: 30 to 40%
  inhibition at 0.5 µM: 80 to 100%

## CC(C)CCN1c2nc(Nc3cc(F)c(O)c(F)c3)ncc2N(C)C(=O)C1C (stereo not shown) [BI-D1870, reference compound]
MV-4-11; Table I-11, RSK inhibitors
  inhibition at 0.01 µM: 0 to 5%
  inhibition at 0.5 µM: 20 to 30%
MM.1S; 96 h
  inhibition at 0.01 µM: 114%
  inhibition at 0.5 µM: 20 to 30%
RPMI-8226; Table I-11, RSK inhibitors
  inhibition at 0.01 µM: 10 to 20%
  inhibition at 0.5 µM: 10 to 20%

## O=C1CCC(N2Cc3c(CN4CCN(c5ccc(-c6cc(F)c7c(c6)C(=O)N(C(C(=O)Nc6nccs6)c6ncn8c6CCC8)C7)cc5)CC4)cccc3C2=S)C(=O)N1 (stereo not shown) [GT-09429, 2-(6,7-dihydro-5H-pyrrolo[1,2-c]imidazol-1-yl)-2-(6-(4-(4-((2-(2,6-dioxopiperidin-3-yl)-1-thioxoisoindolin-4-yl)methyl)piperazin-1-yl)phenyl)-4-fluoro-1-oxoisoindolin-2-yl)-N-(thiazol-2-yl)acetamide]
SW620; Table I-3, EGFR inhibitors
  inhibition at 0.01 µM: 10 to 20%
  inhibition at 0.5 µM: 70 to 80%

## Nc1cccc2c1CN(C1CCC(=O)NC1=O)C2=O (stereo not shown) [Lenalidomide, lenalidomide, reference compound]
MM.1S; 96 h
  inhibition at 0.5 µM: 30 to 35%
MM.1S; MM.1S, 10 nM, 96 hours, Table I-16, compounds of Formula (II)
  Inhibition Rate at 10 nM (%): ln2

## C[C@@H]1CNC(=O)c2cc3ccc(C(=O)Nc4cnn(Cc5ccc(N6CCN(Cc7ccc8c(c7)CN(C7CCC(=O)NC7=O)C8=S)CC6)cc5)c4)nc3n21 (stereo partly drawn) [GT-08777, (9R)-N-(1-(4-(4-((2-(2,6-dioxopiperidin-3-yl)-1-thioxoisoindolin-5-yl)methyl)piperazin-1-yl)benzyl)-1H-pyrazol-4-yl)-9-methyl-6-oxo-6,7,8,9-tetrahydropyrido[3',2':4,5]pyrrolo[1,2-a]pyrazine-2-carboxamide]
[1]
  inhibition at 0.5 µM: 80 to 100%
  inhibition at 2 µM: 60 to 80%
MV-4-11; Table I-11, RSK inhibitors
  inhibition at 0.01 µM: 20 to 30%
  inhibition at 0.5 µM: 60 to 70%
MM.1S; [2]
  inhibition at 0.01 µM: 20 to 30%
MM.1S; [3]
  inhibition at 0.5 µM: 50 to 60%
RPMI-8226; Table I-11, RSK inhibitors
  inhibition at 0.01 µM: 0 to 5%
  inhibition at 0.5 µM: 40 to 50%

## Cc1cc(S(=O)(=O)N2CCN(Cc3ccc4c(c3)CN(C3CCC(=O)NC3=O)C4=S)CC2)ccc1Nc1ncc(Br)c(Nc2cccc(F)c2C(N)=O)n1 (stereo not shown) [GT-08714, 2-((5-bromo-2-((4-((4-((2-(2,6-dioxopiperidin-3-yl)-1-thioxoisoindolin-5-yl)methyl)piperazin-1-yl)sulfonyl)-2-methylphenyl)amino)pyrimidin-4-yl)amino)-6-fluorobenzamide]
[1]
  inhibition at 0.5 µM: 53 to 60%
  inhibition at 2 µM: 60 to 80%
MM.1S; MM.1S, 10 nM, 96 hours, Table I-8, SMARCA2/4 inhibitors
  inhibition at 0.01 µM: 30 to 40%
MM.1S; MM.1S, 500 nM, 96 hours, Table I-8, SMARCA2/4 inhibitors
  inhibition at 0.5 µM: 50 to 60%
RPMI-8226; [4]
  inhibition at 0.01 µM: 30 to 40%
  inhibition at 0.5 µM: 40 to 50%

## C[C@@H]1CNC(=O)c2cc3ccc(C(=O)Nc4cnn(Cc5ccc(N6CCC(N7CCN(Cc8ccc9c(c8)CN(C8CCC(=O)NC8=O)C9=S)CC7)CC6)cc5)c4)nc3n21 (stereo partly drawn) [GT-08778, (9R)-N-(1-(4-(4-(4-((2-(2,6-dioxopiperidin-3-yl)-1-thioxoisoindolin-5-yl)methyl)piperazin-1-yl)piperidin-1-yl)benzyl)-1H-pyrazol-4-yl)-9-methyl-6-oxo-6,7,8,9-tetrahydropyrido[3',2':4,5]pyrrolo[1,2-a]pyrazine-2-carboxamide]
[1]
  inhibition at 0.5 µM: 80 to 100%
  inhibition at 2 µM: 80 to 100%
MV-4-11; Table I-11, RSK inhibitors
  inhibition at 0.01 µM: 50 to 60%
  inhibition at 0.5 µM: 80 to 100%
MM.1S; [2]
  inhibition at 0.01 µM: 40 to 50%
MM.1S; [3]
  inhibition at 0.5 µM: 80 to 100%
RPMI-8226; Table I-11, RSK inhibitors
  inhibition at 0.01 µM: 10 to 20%
  inhibition at 0.5 µM: 50 to 60%

## CC1(C)CCC(CN2CCN(c3ccc(C(=O)NS(=O)(=O)c4ccc(NCC5CCOCC5)c([N+](=O)[O-])c4)c(Oc4cnc5[nH]ccc5c4)c3)CC2)=C(c2ccc(Cl)cc2)C1 [ABT-199, Venetoclax, reference compound]
SW620; Table I-15, BCL-2 inhibitors
  inhibition at 0.01 µM: 5 to 10%
  inhibition at 0.5 µM: 5 to 10%

## CNC(=O)c1ccc(Nc2ncc(C(F)(F)F)c(NCc3nccnc3N(C)S(C)(=O)=O)n2)cc1 [Defactinib, reference compound]
MV-4-11; Table I-12, FAK inhibitors
  inhibition at 0.01 µM: 0 to 5%
  inhibition at 0.5 µM: 50 to 60%
SW620; Table I-12, FAK inhibitors
  inhibition at 0.01 µM: 0 to 5%
  inhibition at 0.5 µM: 5 to 10%
MM.1S; MM.1S, 10 nM, 96 hours, Table I-12, FAK inhibitors
  inhibition at 0.01 µM: 10 to 20%
MM.1S; MM.1S, 500 nM, 96 hours, Table I-12, FAK inhibitors
  inhibition at 0.5 µM: 5 to 10%

## Nc1nnc(-c2ccccc2O)cc1N1CCNCC1 [GTC00645]
MV-4-11; [4]
  inhibition at 0.01 µM: 10 to 15%
  inhibition at 0.5 µM: 10 to 15%
MM.1S; 96 h
  inhibition at 0.01 µM: 15 to 20%
  inhibition at 0.5 µM: 15 to 20%
RPMI-8226; [4]
  inhibition at 0.01 µM: -5 to 0%
  inhibition at 0.5 µM: -5 to 0%

## CN(C)C(=O)c1cc2cnc(Nc3ccc(N4CCNCC4)cn3)nc2n1C1CCCC1 [Ribociclib, reference compound]
MV-4-11; Table I-9, CDK4/6 inhibitors
  inhibition at 0.01 µM: 5 to 10%
  inhibition at 0.5 µM: 20 to 30%
MM.1S; MM.1S, 10 nM, 96 hours, Table I-9, CDK4/6 inhibitors
  inhibition at 0.01 µM: 10 to 20%
MM.1S; MM.1S, 500 nM, 96 hours, Table I-9, CDK4/6 inhibitors
  inhibition at 0.5 µM: 10 to 20%

## COc1cc2nn(C3CCN(Cc4ccc5c(c4)CN(C4CCC(=O)NC4=O)C5=S)CC3)cc2cc1NC(=O)c1cccc(C(F)(F)F)n1 (stereo not shown) [GT-05296, N-(2-(1-((2-(2,6-dioxopiperidin-3-yl)-1-thioxoisoindolin-5-yl)methyl)piperidin-4-yl)-6-methoxy-2H-indazol-5-yl)-6-(trifluoromethyl)picolinamide]
[1]
  inhibition at 0.5 µM: 60 to 80%
  inhibition at 2 µM: 80 to 100%
MV-4-11; Table I-6, IRAK4 inhibitors
  inhibition at 0.01 µM: 10 to 20%
  inhibition at 0.5 µM: 50 to 60%
